Measured values as given in US20080234266A1, “Squaric Acid Derivatives II” (priority 2005, published 2008).

What follows are compounds tested against T1, CHK1 kinase (Homo sapiens, UniProt O14757) (assay: Flashplate method (CHK1), measurement of the CHK1 kinase activity). Details: class symbols; 'Affinity to receptors'.
T1 construct: glutathione S-transferase (GST); made in house; host or cells: Sf21 insect cells (S. frugiperda), baculovirus
T1 sequence (O14757 1-476): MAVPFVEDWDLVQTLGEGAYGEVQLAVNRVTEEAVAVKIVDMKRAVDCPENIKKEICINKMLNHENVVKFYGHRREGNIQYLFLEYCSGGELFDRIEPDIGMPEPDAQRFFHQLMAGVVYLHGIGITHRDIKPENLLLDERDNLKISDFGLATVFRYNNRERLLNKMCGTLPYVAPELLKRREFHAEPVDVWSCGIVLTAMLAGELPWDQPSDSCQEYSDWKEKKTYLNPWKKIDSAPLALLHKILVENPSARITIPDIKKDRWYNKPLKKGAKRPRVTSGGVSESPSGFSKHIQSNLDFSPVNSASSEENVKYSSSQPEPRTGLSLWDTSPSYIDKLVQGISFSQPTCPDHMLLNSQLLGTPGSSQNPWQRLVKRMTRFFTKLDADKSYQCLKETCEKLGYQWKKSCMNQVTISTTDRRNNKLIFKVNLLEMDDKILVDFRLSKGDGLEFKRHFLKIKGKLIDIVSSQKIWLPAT
Format: biochemical
Procedure: CHK1 kinase is expressed for the purposes of protein production in insect cells (Sf21; S. frugiperda) and subsequent purification by affinity chromatography as fusion protein with glutathione S-transferase in a baculovirus expression vector. The cultivation, infection and digestion of the cells as well as the purification of the fusion protein by column chromatography are carried out in accordance with manufacturer-oriented generic working instructions.
The kinase activity is measured using various available measurement systems. In the scintillation proximity method (Sorg et al., J. of. Biomolecular Screening, 2002, 7, 11-19), the flashplate method or the filter binding test, the radioactive phosphorylation of a protein or peptide as substrate is measured using radioactively labelled ATP (γ^32P-ATP, (γ^33P-ATP). In the case of the presence of an inhibitory compound, a reduced radioactive signal, or none at all, can be detected. Furthermore, homogeneous time-resolved fluorescence resonance energy transfer (HTR-FRET) and fluorescence polarisation (FP) technologies are useful as assay methods (Sills et al., J. of Biomolecular Screening, 2002, 191-214).
The test plates used are 384-well streptavidin-coated Flashplates Plus® from Perkin Elmer (Cat.No. SMP410A001PK). The assay plate is equilibrated with 75 μl of assay buffer per well 30 min before commencement of the experiment. The buffer is sucked out before commencement of the experiment, and the components of the kinase reaction described below are pipetted onto the plate.
CHK1 kinase, a biotinylated substrate peptide (for example CHKtide: […]), is incubated with radioactively labelled ATP in the presence and absence of test substances at 30° Celsius and a total volume of 50 μl. The reaction is terminated using 25 μl of a 0.2 M EDTA solution. After incubation for 30 min at room temperature, the supernatants are filtered off with suction, and the wells are washed three times with 100 μl of 0.9% NaCl solution each time. The measurement of the bound radioactivity is carried out by means of a scintillation measuring instrument (Topcount NXT, Perkin-Elmer).
The full value used is the inhibitor-free kinase reaction. This should be approximately in the range 3000-4000 cpm. The pharmacological zero value used is staurosporin in a final concentration of 0.1 μM. The inhibitory values (IC50) are determined using the program RS1_MTS ( ).
Kinase reaction conditions per well:
0.15 μg of CHKtide ([…])
50 μl total volume (1-fold assay buffer reaction conditions)
Solutions used: • assay buffer:
0.1 mM Titriplex VI (EGTA
10 mM magnesium acetate 0.1% mercaptoethanol
pH=7.5 (to be set using hydrochloric acid) Bovine serum albumin (final concentration 0.1%) is not added until just before use. • stop solution:
0.2 M TitriplexIII (EDTA)
• γ^33P-ATP (Perkin-Elmer) • CHK1 kinase preparations: specific activity>50 U/mg • CHKtide solution: biotinylated peptide substrate (Biotrend) stored as stock solution (concentration 0.15 mg/ml).

Compound	IC50 [nM]
3-(1H-benzimidazol-5-ylamino)-4-[(S)-1-(3-hydroxyphenyl)ethylamino]cyclobut-3-ene-1,2-dione [Compound A4]	> 1000
3-(3-hydroxybenzylamino)-4-(5-methyl-imidazo[1,2-a]pyridin-6-ylamino)cyclobut-3-ene-1,2-dione [Compound A56]	< 1000
3-(8-bromoimidazo[1,2-a]pyridin-6-ylamino)-4-(3-hydroxybenzylamino)cyclobut-3-ene-1,2-dione [Compound A60]	< 1000
3-(8-bromoimidazo[1,2-a]pyridin-6-ylamino)-4-[(R)-1-(3-methoxyphenyl)ethylamino]-cyclobut-3-ene-1,2-dione [Compound A63]	> 1000
3-[3-(2-methoxyethyl)-3H-benzimidazol-5-ylamino]-4-[(R)-1-(3-methoxyphenyl)ethyl-amino]cyclobut-3-ene-1,2-dione [Compound A67]	> 1000
3-[(R)-1-(3-methoxyphenyl)ethylamino]-4-(5-methylimidazo[1,2-a]pyridin-6-ylamino)-cyclobut-3-ene-1,2-dione [Compound A58]	> 1000
3-[(R)-1-(3-methoxyphenyl)ethylamino]-4-(7-methylimidazo[1,2-a]pyridin-6-ylamino)-cyclobut-3-ene-1,2-dione [Compound A57]	> 1000
3-[(R)-1-(3-methoxyphenyl)ethylamino]-4-(8-methylimidazo[1,2-a]pyridin-6-ylamino)-cyclobut-3-ene-1,2-dione [Compound A59]	> 1000
O=c1c(NCc2cccc(O)c2)c(Nc2ccc3[nH]cnc3c2)c1=O [Compound A1, 3-(1H-benzimidazol-5-ylamino)-4-(3-hydroxybenzylamino)cyclobut-3-ene-1,2-dione]	< 100
COc1cccc([C@@H](C)Nc2c(Nc3ccc4[nH]cnc4c3)c(=O)c2=O)c1 [Compound A2, 3-(1H-benzimidazol-5-ylamino)-4-[(R)-1-(3-methoxyphenyl)ethylamino]cyclobut-3-ene-1,2-dione]	< 1000
C[C@@H](Nc1c(Nc2ccc3[nH]cnc3c2)c(=O)c1=O)c1cccc(O)c1 [Compound A3, 3-(1H-benzimidazol-5-ylamino)-4-[(R)-1-(3-hydroxyphenyl)ethylamino]cyclobut-3-ene-1,2-dione]	< 100
NS(=O)(=O)c1cccc(CNc2c(Nc3ccc4[nH]cnc4c3)c(=O)c2=O)c1 [Compound A6, 3-(1H-benzimidazol-5-ylamino)-4-(3-amino-sulfonylbenzylamino)cyclobut-3-ene-1,2-dione]	< 1000
O=c1c(NCc2cccc(O)c2)c(Nc2ccc3[nH]c(C(F)(F)F)nc3c2)c1=O [Compound A10, 3-(1H-benzimidazol-2-trifluoromethyl-5-yl-amino)-4-(3-hydroxybenzylamino)cyclobut-3-ene-1,2-dione]	> 1000
O=c1c(NCc2cccc(O)c2)c(Nc2cc3nc[nH]c3cc2Cl)c1=O [Compound A12, 3-(1H-benzimidazol-6-chloro-5-ylamino)-4-(3-hydroxybenzylamino)cyclobut-3-ene-1,2-dione]	> 1000
O=c1c(NCc2cccc(O)c2)c(Nc2ccc3ncsc3c2)c1=O [Compound A14, 3-(benzothiazol-6-ylamino)-4-(3-hydroxy-benzylamino)cyclobut-3-ene-1,2-dione]	< 1000
O=c1c(NCc2cccc(O)c2)c(NCc2ccc3[nH]nnc3c2)c1=O [Compound A15, 3-(1H-benzotriazol-5-ylmethylamino)-4-(3-hydroxybenzylamino)cyclobut-3-ene-1,2-dione]	< 1000
O=c1c(NCc2cccc(O)c2)c(Nc2ccc3cc[nH]c3c2)c1=O [Compound A28, 3-(1H-indol-6-ylamino)-4-(3-hydroxybenzyl-amino)cyclobut-3-ene-1,2-dione]	> 1000
O=c1c(NCc2cccc(O)c2)c(Nc2ccc3[nH]ccc3c2)c1=O [Compound A29, 3-(1H-indol-5-ylamino)-4-(3-hydroxybenzyl-amino)cyclobut-3-ene-1,2-dione]	> 1000

Other lines, results leading:

IC50 [nM]	Compound
> 1000	CC(Nc1c(Nc2ccc3[nH]ncc3c2)c(=O)c1=O)c1cccc(NC(N)=O)c1 (racemic) [Compound A145, 3-(1H-indazol-5-ylamino)-4-[(R,S)-1-(3-ureidophenyl)ethylamino]cyclobut-3-ene-1,2-dione]
> 1000	O=c1[nH]c2ccc(Nc3c(NCc4cccc(O)c4)c(=O)c3=O)cc2[nH]1 [Compound A30, 4-(2-oxo-2,3-dihydro-1H-benzimidazol-5-yl-amino)-3-(3-hydroxybenzylamino)cyclobut-3-ene-1,2-dione]
> 1000	O=c1c(NCc2cccc(F)c2)c(Nc2ccc3[nH]cnc3c2)c1=O [Compound A31, 3-(1H-benzimidazol-5-ylamino)-4-(3-fluoro-benzylamino)cyclobut-3-ene-1,2-dione]
> 1000	NC(=O)c1c[nH]c2ccc(Nc3c(NCc4cccc(O)c4)c(=O)c3=O)cc12 [Compound A32, 3-(3-aminocarbonyl-1H-indol-5-ylamino)-4-(3-hydroxybenzylamino)cyclobut-3-ene-1,2-dione]
> 1000	O=c1c(NCc2cccc(Cl)c2)c(Nc2ccc3[nH]cnc3c2)c1=O [Compound A33, 3-(1H-benzimidazol-5-ylamino)-4-(3-chloro-benzylamino)cyclobut-3-ene-1,2-dione]
> 1000	O=c1c(NCc2cccc(-n3cccc3)c2)c(Nc2ccc3[nH]cnc3c2)c1=O [Compound A35, 3-(1H-benzimidazol-5-ylamino)-4-(3-pyrrol-1-ylbenzylamino)cyclobut-3-ene-1,2-dione]
> 1000	O=c1c(NCc2cc(Br)ccc2O)c(Nc2ccc3[nH]cnc3c2)c1=O [Compound A36, 3-(1H-benzimidazol-5-ylamino)-4-(3-bromo-6-hydroxybenzylamino)cyclobut-3-ene-1,2-dione]
> 1000	O=c1c(NCc2cccc(C(F)(F)F)c2)c(Nc2ccc3[nH]cnc3c2)c1=O [Compound A37, 3-(1H-benzimidazol-5-ylamino)-4-(3-trifluoro-methylbenzylamino)cyclobut-3-ene-1,2-dione]
< 1000	CN(Cc1cccc(O)c1)c1c(Nc2ccc3[nH]cnc3c2)c(=O)c1=O [Compound A38, 3-(1H-benzimidazol-5-ylamino)-4-[(3-hydroxybenzyl)methylamino]cyclobut-3-ene-1,2-dione]
> 1000	Cc1cc2cc(Nc3c(NCc4cccc(O)c4)c(=O)c3=O)ccc2[nH]1 [Compound A39, 3-(2-methyl-1H-indol-5-ylamino)-4-(3-hydroxybenzylamino)cyclobut-3-ene-1,2-dione]
> 1000	O=c1c(NCc2cccc(O)c2)c(Nc2ccc3[nH]c(S)nc3c2)c1=O [Compound A40, 3-(2-mercapto-1H-benzimidazol-5-ylamino)-4-(3-hydroxybenzylamino)cyclobut-3-ene-1,2-dione]
> 1000	CC(C)(C)NS(=O)(=O)c1cccc(CNc2c(Nc3ccc4[nH]cnc4c3)c(=O)c2=O)c1 [Compound A41, 3-(1H-benzimidazol-5-ylamino)-4-[3-(tert-butylaminosulfonyl)benzylamino]cyclobut-3-ene-1,2-dione]
> 1000	O=c1c(NCc2cccc(O)c2)c(Nc2ccc3c(c2)NCC3)c1=O [Compound A42, 3-(2,3-dihydro-1 H-indol-6-ylamino)-4-(3-hydroxybenzylamino)cyclobut-3-ene-1,2-dione]
